The record followed here is patent publication US20110190199A1, “Combination Therapy for Tuberculosis” (priority 2008, published 2011).

For one assay, the system named is M. tuberculosis H37Rv. The assay is described as follows: Example 9: compound of formula I added to first and second line anti-tuberculosis drugs (survival, lung CFU after 4 weeks). It is filed as in vivo, mice. As to conditions: for Mean lung log10 CFU count (±) S.D. after 4 weeks of treatment with: Regimen alone / Mean lung log10 CFU count (±) S.D. after 4 weeks of treatment with: Regimen + U 25 mg/kg / Mean lung log10 CFU count (±) S.D. after 4 weeks of treatment with: Regimen + U 100 mg/kg: D0 8.36 ± 0.10; for Mean lung log10 CFU count (±) S.D. after 4 weeks of treatment with: Regimen alone: H 10, R 10, Eb 100, M 100 mg, Et 50, A 150 sc, C 20 mg/kg; for Mean lung log10 CFU count (±) S.D. after 4 weeks of treatment with: Regimen + U 25 mg/kg: labelled drug PLUS U 25 mg/kg; for Mean lung log10 CFU count (±) S.D. after 4 weeks of treatment with: Regimen + U 100 mg/kg: labelled drug PLUS U 100 mg/kg, lower limit of detection 3.40; for Time to 50% mortality: no treatment 21 days.

Assay [1] deals with Mycobacterium tuberculosis H37Rv. Kind of assay: Example 8B: eight week dose ranging study (second phase after 4 weeks RHZU25). The format is in vivo, mice. More on the design: Lung CFU / CFU-U only: unit not given here. The note with it: 8 weeks: 4 weeks RHZU25 (4.19 ± 0.26) then 4 weeks of the labelled treatment; R 10, H 25 mg/kg; untreated 5.49 ± 0.23. As to the method:
Eighty of the mice from Group 4 (in Example 8A) that had been receiving 25 mg/kg of the compound of formula I (U) along with rifampin(R), isoniazid(H), and pyrazinamide(Z) were evaluated in the second phase of the study. They were assigned to one of the groups described below in Table 6 and the study was continued for an additional 4 weeks (i.e. 8 week results).
As described above, 5 animals served as the control and no further drugs were given. Five were given the combination of rifampin(R) and isoniazid (H), five given isoniazid (H) or rifampin(R) alone. […] Six of these groups were also dosed with rifampin (R). The rifampin and isoniazid was dosed in the same manner and in the same amount as in Example 8A.
At the conclusion of the eight (8) week experiment, all of the animals were sacrificed and CFU lung counts were obtained.

For assay [2] the test system is unchanged. The assay is described as follows: Example 6: in vivo activity of the combination (lung CFU after 4 and 8 weeks). More on the design: species or system mice. The note with it: for Lung log10 CFU counts (±SD) after treatment with the indicated regimen plus the compound of formula (I) 100 mg/kg/day, Day 28 / Lung log10 CFU counts (±SD) after treatment with the indicated regimen plus the compound of formula (I) 100 mg/kg/day, Day 56: labelled regimen PLUS compound of formula (I) 100 mg/kg/day, INH 25, RIF 10, PZA 150, MXF 100 mg/kg; for Lung log10 CFU counts (±SD) after treatment with the indicated regimen plus the compound of formula (I) 100 mg/kg/day, Day 28 / Lung log10 CFU counts (±SD) after treatment with the indicated regimen plus the compound of formula (I) 100 mg/kg/day, Day 56 / Lung log10 CFU counts (±SD) after treatment with the indicated regimen, Day 56 / Lung log10 CFU counts (±SD) after treatment with the indicated regimen, Day 28: Day 0 7.37 ± 0.12; for reduction in lung CFU counts from baseline over the first 28 days: monotherapy, compound of formula (I) 100, INH 25, RIF 10 mg/kg; for Lung log10 CFU counts (±SD) after treatment with the indicated regimen, Day 56 / Lung log10 CFU counts (±SD) after treatment with the indicated regimen, Day 28: regimen as labelled, INH 25, RIF 10, PZA 150, MXF 100, compound of formula (I) 100 mg/kg; for Lung log10 CFU counts (±SD) after treatment with the indicated regimen, Day 28: 100 mg/kg.

Assay [3] has the same test system. The format is in vivo, mice. As to conditions: 25 mg/kg.
Assay [4] shares this test system. The assay is described as follows: Example 8C: additional dose ranging study (4 and 8 weeks). The format is in vivo, mice. As to conditions: lung; 4 weeks RHZU100 then 4 weeks of the labelled control regimen without U; untreated 4.91 ± 0.17. As to the method: The protocol described above in Example 8A and 8B was carried out on an alternative occasion. The only substantive changes were the number of animals per group and the initial incubation period.
Testing continued for an additional 4 weeks with 60 of the mice from Test Group 2 immediately above. The mice either received U alone, at varying doses, or the combination of U and R. The following results were obtained.

Values joined by “and” are separate entries in the source; they are usually repeats but may differ in a detail not shown here. Equal values may be shown once. Marks after values point to notes of the source that are not given here.

With `NCC[C@H](O)C(=O)N[C@@H]1C[C@H](N)[C@@H](O[C@H]2O[C@H](CN)[C@@H](O)[C@H](O)[C@H]2O)[C@H](O)[C@H]1O[C@H]1O[C@H](CO)[C@@H](O)[C@H](N)[C@H]1O` [A, amikacin], in the assay on M. tuberculosis H37Rv, the “Mean lung log10 CFU count (±) S.D. after 4 weeks of treatment with: Regimen alone” value (“Mean lung log10 CFU count … Regimen alone” below) is 7.24 ± 0.14 log10 CFU, the “Mean lung log10 CFU count (±) S.D. after 4 weeks of treatment with: Regimen + U 25 mg/kg” value (“Mean lung log10 CFU count … Regimen + U 25 mg/kg” for short) stood at 6.78 ± 0.16 log10 CFU and the “Mean lung log10 CFU count (±) S.D. after 4 weeks of treatment with: Regimen + U 100 mg/kg” value amounted to 5.18 ± 0.17 log10 CFU.

As to `CC(C)/N=c1\cc2n(-c3ccc(Cl)cc3)c3ccccc3nc-2cc1Nc1ccc(Cl)cc1` [C, clofazimine], in the assay with M. tuberculosis H37Rv, the “Mean lung log10 CFU count … Regimen alone” value worked out at 5.92 ± 0.24 log10 CFU, the “Mean lung log10 CFU count … Regimen + U 25 mg/kg” value stood at 6.25 ± 0.20 log10 CFU and the “Mean lung log10 CFU count (±) S.D. after 4 weeks of treatment with: Regimen + U 100 mg/kg” value worked out at 4.91 ± 0.14 log10 CFU.

Regarding `N[C@@H]1CON=C1O` [Cs, cycloserine], in the assay on M. tuberculosis H37Rv, the “Mean lung log10 CFU count … Regimen + U 25 mg/kg” value is reported as 7.19 ± 0.21 log10 CFU, the “Mean lung log10 CFU count (±) S.D. after 4 weeks of treatment with: Regimen + U 100 mg/kg” value was determined as 5.66 ± 0.11 log10 CFU and the “Time to 50% mortality” value came to 22 days.

As for `CC[C@@H](CO)NCCN[C@@H](CC)CO` [Eb, ethambutol], in the assay on M. tuberculosis H37Rv, the “Mean lung log10 CFU count … Regimen alone” value is 7.41 ± 0.57 log10 CFU, the “Mean lung log10 CFU count … Regimen + U 25 mg/kg” value came to 6.86 ± 0.16 log10 CFU, the “Mean lung log10 CFU count (±) S.D. after 4 weeks of treatment with: Regimen + U 100 mg/kg” value worked out at 5.50 ± 0.13 log10 CFU and the “Time to 50% mortality” value turned out to be 30 days.

Regarding `CCc1cc(C(N)=S)ccn1` [Et, ethionamide], in the assay on M. tuberculosis H37Rv, the “Mean lung log10 CFU count … Regimen alone” value was 7.19 ± 0.04 log10 CFU, the “Mean lung log10 CFU count … Regimen + U 25 mg/kg” value was 7.18 ± 0.18 log10 CFU and the “Mean lung log10 CFU count (±) S.D. after 4 weeks of treatment with: Regimen + U 100 mg/kg” value was 5.46 ± 0.15 log10 CFU.

As to `NNC(=O)c1ccncc1` [INH, isoniazid], the “Lung CFU” value in assay [1] stood at 4.46 ± 0.37. In addition, in assay [2], the “Lung log10 CFU counts (±SD) after treatment with the indicated regimen plus the compound of formula (I) 100 mg/kg/day, Day 28” value was determined as 4.33 ± 0.29 log10 CFU; the “Lung log10 CFU counts (±SD) after treatment with the indicated regimen plus the compound of formula (I) 100 mg/kg/day, Day 56” value stood at 2.87 ± 0.23 log10 CFU; the “reduction in lung CFU counts from baseline over the first 28 days” value was 1.58 log10; the “Lung log10 CFU counts (±SD) after treatment with the indicated regimen, Day 56” value stood at 4.53 ± 0.24 log10 CFU. Besides, in assay [2], the “Lung log10 CFU counts (±SD) after treatment with the indicated regimen, Day 28” value was 5.79 log10 CFU and 5.79 ± 0.14 log10 CFU. Further, in the assay with M. tuberculosis H37Rv, the “Mean lung log10 CFU count … Regimen alone” value was found to be 7.01 ± 0.14 log10 CFU, the “Mean lung log10 CFU count … Regimen + U 25 mg/kg” value was found to be 6.22 ± 0.06 log10 CFU and the “Mean lung log10 CFU count (±) S.D. after 4 weeks of treatment with: Regimen + U 100 mg/kg” value is given as 5.79 ± 0.33 log10 CFU. For the same compound, in assay [3] (28 days), the “log kill (reduction in mean lung CFU count compared to the baseline value)” value was determined as 1.87 log10. In addition, the mean spleen weight in assay [3] (after 28 days of treatment, pre-treatment 105±11 mg, untreated 237±16 mg) was determined as 100 ± 1 mg.

For `COc1c(N2C[C@@H]3CCCN[C@@H]3C2)c(F)cc2c(=O)c(C(=O)O)cn(C3CC3)c12` [M, moxifloxacin], in the assay with M. tuberculosis H37Rv, the “Mean lung log10 CFU count … Regimen alone” value is listed as 6.49 ± 0.12 log10 CFU, the “Mean lung log10 CFU count … Regimen + U 25 mg/kg” value is 7.08 ± 0.10 log10 CFU and the “Mean lung log10 CFU count (±) S.D. after 4 weeks of treatment with: Regimen + U 100 mg/kg” value came to 5.33 ± 0.30 log10 CFU.

On to `Nc1ccc(C(=O)O)c(O)c1` [Ps, para-aminosalicyclic acid], for which, in the assay with M. tuberculosis H37Rv, the “Mean lung log10 CFU count … Regimen + U 25 mg/kg” value came out at 6.87 ± 0.21 log10 CFU, the “Mean lung log10 CFU count (±) S.D. after 4 weeks of treatment with: Regimen + U 100 mg/kg” value came out at 5.39 ± 0.32 log10 CFU and the “Time to 50% mortality” value was determined as 31 days.

Turning to `CO[C@H]1/C=C/O[C@@]2(C)Oc3c(C)c(O)c4c(O)c(c(/C=N/N5CCN(C)CC5)c(O)c4c3C2=O)NC(=O)/C(C)=C\C=C\[C@H](C)[C@H](O)[C@@H](C)[C@@H](O)[C@@H](C)[C@H](OC(C)=O)[C@@H]1C` [RIF, rifampin], in assay [1], the “Lung CFU” value is listed as 4.18 ± 0.55. The “CFU Count 8 weeks” value in assay [4] is recorded as 4.16 ± 0.65. In assay [2], the “Lung log10 CFU counts (±SD) after treatment with the indicated regimen plus the compound of formula (I) 100 mg/kg/day, Day 28” value was determined as 3.73 ± 0.19 log10 CFU; the “Lung log10 CFU counts (±SD) after treatment with the indicated regimen plus the compound of formula (I) 100 mg/kg/day, Day 56” value was determined as 1.29 ± 0.22 log10 CFU; the “reduction in lung CFU counts from baseline over the first 28 days” value is 1.63 log10; the “Lung log10 CFU counts (±SD) after treatment with the indicated regimen, Day 56” value was found to be 4.65 ± 0.24 log10 CFU. Further, the “Lung log10 CFU counts (±SD) after treatment with the indicated regimen, Day 28” value in assay [2] was 5.74 log10 CFU and 5.74 ± 0.17 log10 CFU. In the assay with M. tuberculosis H37Rv, the “Mean lung log10 CFU count … Regimen alone” value came to 6.23 ± 0.11 log10 CFU, the “Mean lung log10 CFU count … Regimen + U 25 mg/kg” value came to 5.91 ± 0.21 log10 CFU and the “Mean lung log10 CFU count (±) S.D. after 4 weeks of treatment with: Regimen + U 100 mg/kg” value is given as 5.02 ± 0.10 log10 CFU.

For `NC(=O)c1cnccn1` [Z, pyrazinamide], in the assay with M. tuberculosis H37Rv, the “Mean lung log10 CFU count … Regimen + U 25 mg/kg” value worked out at 4.73 ± 0.38 log10 CFU, the “Mean lung log10 CFU count (±) S.D. after 4 weeks of treatment with: Regimen + U 100 mg/kg” value is recorded as “≦3.59*** log10 CFU” and the “Time to 50% mortality” value is given as 21 days.

Turning to capreomycin, in the assay with M. tuberculosis H37Rv, the “Mean lung log10 CFU count … Regimen + U 25 mg/kg” value amounted to 6.81 ± 0.13 log10 CFU, the “Mean lung log10 CFU count (±) S.D. after 4 weeks of treatment with: Regimen + U 100 mg/kg” value is reported as 5.35 ± 0.17 log10 CFU and the “Time to 50% mortality” value is reported as 22 days.
